{"source": "PubChem BioAssay AID214", "about": "(DTP/NCI, 2004)", "test_system": "B6C3F1 mice, colon carcinoma 38 s.c., T/C", "experiment": "NCI In Vivo Anticancer Drug Screen. Data for tumor model Colon Carcinoma 38 (subcutaneous) in B6C3F1 mice", "settings": "endpoint: median tumor weight (est.), schedule: Q07DX002 (ip), higher = larger tumour", "description": "The antitumor activity of compounds was measured in mice bearing transplantable tumors. Survival or tumor size were measured and the results are expressed as the measurement made in the treated group (T) divided by the measurement made in the vehicle treated control group (C). The tumor model used in this assay is Colon Carcinoma 38 (subcutaneous) in B6C3F1 mice", "key": {"[1]": {"settings": "dose: 100.0 mg/kg/injection, vehicle: Klucel (hydroxypropylcellulose) (HPC)"}, "[2]": {"settings": "dose: 200.0 mg/kg/injection, vehicle: Klucel (hydroxypropylcellulose) (HPC)"}, "[3]": {"settings": "dose: 400.0 mg/kg/injection, vehicle: Klucel (hydroxypropylcellulose) (HPC)"}, "[4]": {"settings": "dose: 50.0 mg/kg/injection, vehicle: saline with Tween-80"}, "[5]": {"settings": "dose: 100.0 mg/kg/injection, vehicle: saline with Tween-80"}, "[6]": {"settings": "dose: 200.0 mg/kg/injection, vehicle: saline with Tween-80"}, "[7]": {"settings": "dose: 400.0 mg/kg/injection, vehicle: saline with Tween-80"}, "[8]": {"settings": "dose: 25.0 mg/kg/injection, vehicle: saline with Tween-80"}, "[9]": {"settings": "dose: 16.0 mg/kg/injection, vehicle: saline"}, "[10]": {"settings": "dose: 32.0 mg/kg/injection, vehicle: saline"}}, "note": "Where “and” joins values, the source holds several entries; their conditions need not be identical. Equal entries are not always repeated. Records with an inconclusive call do not appear.", "data": [{"compound": "CSc1ncc2ncn(C3OC(CO)C(O)C3O)c2n1", "note": "(centres undefined)", "values": [{"measurement": "T/C", "setting": "[1]", "value": "120 % of control"}, {"measurement": "T/C", "setting": "[2]", "value": "78 % of control"}, {"measurement": "T/C", "setting": "[3]", "value": "120 % of control"}]}, {"compound": "C[n+]1c(-c2cccc(OCCOCCOc3cccc(-c4c5cc(N)ccc5c5ccc(N)cc5[n+]4C)c3)c2)c2cc(N)ccc2c2ccc(N)cc21", "values": [{"measurement": "T/C", "setting": "dose: 4.0 mg/kg/injection, vehicle: water", "value": "71 % of control"}, {"measurement": "T/C", "setting": "dose: 8.0 mg/kg/injection, vehicle: water", "value": "54 % of control"}, {"measurement": "T/C", "setting": "dose: 16.0 mg/kg/injection, vehicle: water", "value": "85 % of control and 66 % of control"}, {"measurement": "T/C", "setting": "dose: 64.0 mg/kg/injection, vehicle: water", "value": "33 % of control and 52 % of control"}]}, {"compound": "CC(=O)C(=O)O.CC(=O)C(=O)O.[NH-]C1CCCCC1[NH-].[Pt+2]", "note": "(centres undefined)", "values": [{"measurement": "T/C", "setting": "dose: 6.25 mg/kg/injection, vehicle: dextrose", "value": "83 % of control"}, {"measurement": "T/C", "setting": "dose: 12.5 mg/kg/injection, vehicle: dextrose", "value": "31 % of control"}, {"measurement": "T/C", "setting": "dose: 25.0 mg/kg/injection, vehicle: dextrose", "value": "31 % of control"}, {"measurement": "T/C", "setting": "dose: 50.0 mg/kg/injection, vehicle: dextrose", "value": "16 % of control"}]}, {"compound": "COc1cc2c[n+](C)c3c(c2cc1OC)Cc1cc2c(cc1-3)OCO2", "values": [{"measurement": "T/C", "setting": "[4]", "value": "94 % of control"}, {"measurement": "T/C", "setting": "[5]", "value": "107 % of control"}, {"measurement": "T/C", "setting": "[6]", "value": "97 % of control"}, {"measurement": "T/C", "setting": "[7]", "value": "85 % of control"}]}, {"compound": "CCCCCC1c2cc(O)ccc2OC1N1CCOCC1", "note": "(centres undefined)", "values": [{"measurement": "T/C", "setting": "[8]", "value": "103 % of control"}, {"measurement": "T/C", "setting": "[4]", "value": "74 % of control"}, {"measurement": "T/C", "setting": "[5]", "value": "92 % of control"}, {"measurement": "T/C", "setting": "[7]", "value": "81 % of control"}]}, {"compound": "CC1(C)OCC2OC=CC(=O)C2O1", "note": "(centres undefined)", "values": [{"measurement": "T/C", "setting": "[6]", "value": "222 % of control"}]}, {"compound": "Cc1c(N)nc([C@H](CC(N)=O)NC[C@H](N)C(N)=O)nc1C(=O)N[C@H](C(=O)N[C@H](C)[C@@H](O)[C@H](C)C(=O)N[C@H](C(=O)NCCc1nc(-c2nc(C(=O)NCCC[S+](C)C)cs2)cs1)[C@@H](C)O)C(OC1OC(CO)C(O)C(O)C1OC1OC(CO)C(O)C(OC(N)=O)C1O)c1cnc[nH]1", "note": "(some centres undefined)", "values": [{"measurement": "T/C", "setting": "[9]", "value": "26 % of control"}, {"measurement": "T/C", "setting": "[10]", "value": "14 % of control"}, {"measurement": "T/C", "setting": "dose: 64.0 mg/kg/injection, vehicle: saline", "value": "35 % of control"}, {"measurement": "T/C", "setting": "dose: 128.0 mg/kg/injection, vehicle: saline", "value": "9 % of control"}]}, {"compound": "Cn1c(=O)[nH]c2nncnc2c1=O", "values": [{"measurement": "T/C", "setting": "dose: 12.5 mg/kg/injection, vehicle: water", "value": "104 % of control and 112 % of control"}, {"measurement": "T/C", "setting": "dose: 50.0 mg/kg/injection, vehicle: water", "value": "117 % of control and 119 % of control"}, {"measurement": "T/C", "setting": "dose: 100.0 mg/kg/injection, vehicle: water", "value": "120 % of control"}]}, {"compound": "Cn1cc(C2NC(=O)c3ccccc3N2)c2ccccc21", "note": "(centres undefined)", "values": [{"measurement": "T/C", "setting": "dose: 50.0 mg/kg/injection, vehicle: Klucel (hydroxypropylcellulose) (HPC)", "value": "46 % of control"}, {"measurement": "T/C", "setting": "[1]", "value": "244 % of control"}, {"measurement": "T/C", "setting": "[2]", "value": "42 % of control and 63 % of control"}, {"measurement": "T/C", "setting": "[3]", "value": "151 % of control"}, {"measurement": "T/C", "setting": "dose: 1600.0 mg/kg/injection, vehicle: Klucel (hydroxypropylcellulose) (HPC)", "value": "96 % of control"}]}, {"compound": "N=C(N)CCCCCCCCC(=N)N", "values": [{"measurement": "T/C", "setting": "dose: 6.25 mg/kg/injection, vehicle: Klucel (hydroxypropylcellulose) (HPC)", "value": "169 % of control"}, {"measurement": "T/C", "setting": "dose: 12.5 mg/kg/injection, vehicle: Klucel (hydroxypropylcellulose) (HPC)", "value": "109 % of control"}, {"measurement": "T/C", "setting": "dose: 25.0 mg/kg/injection, vehicle: Klucel (hydroxypropylcellulose) (HPC)", "value": "109 % of control"}]}, {"compound": "Cc1c(N)nc(C(CC(N)=O)NCC(N)C(N)=O)nc1C(=O)NC(C(=O)NC(C)C(O)CC(=O)NC(C(=O)NC(OC1OC(C)C(N)C(O)C1O)C(O)c1nc(-c2nc(C(=O)NCCCC(N)CC(=O)NCCCNCCCCN)cs2)cs1)C(C)O)C(OC1OC(CO)C(O)C(O)C1OC1OC(CO)C(O)C(OC(N)=O)C1O)c1cnc[nH]1", "note": "(centres undefined)", "values": [{"measurement": "T/C", "setting": "dose: 4.0 mg/kg/injection, vehicle: saline", "value": "36 % of control"}, {"measurement": "T/C", "setting": "dose: 8.0 mg/kg/injection, vehicle: saline", "value": "15 % of control"}, {"measurement": "T/C", "setting": "[9]", "value": "8 % of control"}, {"measurement": "T/C", "setting": "[10]", "value": "1 % of control"}]}, {"compound": "Cc1cn(C2CC(F)C(CO)O2)c(=O)[nH]c1=O", "note": "(centres undefined)", "values": [{"measurement": "T/C", "setting": "dose: 1800.0 mg/kg/injection, vehicle: saline", "value": "103 % of control"}]}, {"compound": "O=C(CCCN1CCC(C(O)c2ccc(F)cc2)CC1)c1ccc(F)cc1", "note": "(centres undefined)", "values": [{"measurement": "T/C", "setting": "dose: 12.5 mg/kg/injection, vehicle: saline with Tween-80", "value": "59 % of control"}, {"measurement": "T/C", "setting": "[8]", "value": "49 % of control"}, {"measurement": "T/C", "setting": "[4]", "value": "92 % of control"}, {"measurement": "T/C", "setting": "[5]", "value": "67 % of control"}]}]}
